The values below are quoted from earlier work in patent US10676418B2, “Method for producing microparticles from pressurized and heated starting material solution” (M. TECHNIQUE CO., LTD., priority 2016, dated 2020).

The conditions of the data set: 25° C.; normal temperature and pressure.

Take `COc1cc(/C=C/C(=O)CC(=O)/C=C/c2ccc(O)c(OC)c2)ccc1O` [curcumin]: the solubility in ethanol result was “about 0.5 % by weight”.
